In test [1] the target is T1, neurokinin-2 receptor (NK2R/CHO cells) (Homo sapiens, UniProt P21452).
T1 construct: expressed in transfected cells; host or cells: CHO cells (NK2R/CHO)
T1 sequence (P21452 1-398): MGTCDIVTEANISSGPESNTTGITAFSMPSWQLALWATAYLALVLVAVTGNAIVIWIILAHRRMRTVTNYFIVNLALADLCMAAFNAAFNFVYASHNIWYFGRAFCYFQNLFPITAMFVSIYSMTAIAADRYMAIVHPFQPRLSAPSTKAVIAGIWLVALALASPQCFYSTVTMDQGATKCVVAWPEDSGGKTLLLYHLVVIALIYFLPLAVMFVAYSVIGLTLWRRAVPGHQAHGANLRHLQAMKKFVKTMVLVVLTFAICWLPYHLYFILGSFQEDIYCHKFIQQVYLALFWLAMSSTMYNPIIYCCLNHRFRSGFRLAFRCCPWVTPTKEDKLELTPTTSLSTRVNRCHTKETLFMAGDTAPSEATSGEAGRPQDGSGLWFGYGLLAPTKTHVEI
In words: Displacement of Cy5-NKA bound to NK2R/CHO cells by SR48,968. The class given is binding.
Description: (a) Cells expressing neurokinin-2 receptor (NK2R/CHO) were obtained.
A culture of NK2R/CHO cells, near confluence, was washed with 12 mL DPBS(Mg^+2 & Ca^+2 free), trypsinized by adding trypsin (2 mL/T-25 flask), incubating at 37° C. for about 5 min, then quenching with 10 mL media. Cells were then counted, and diluted to the desired final concentration of cells (5,000 cells/25 μL). […] The plate was covered and wrapped in aluminum foil to protect from light and left to shake for 1 hr at room temperature. For each sample, 25 μL was removed, placed in an IMAGN 2000™ capillary, and read using IMAGN™ software (Biometric Imaging, Inc.) The sample was allowed to settle until the cells rested on the bottom of the well. The time require for settling was typically 10 minutes.
SR-48,968 is a known inhibitor of the binding of NKA neurokinin 2 receptor.
"Max" and "min" refer to the maximum and minimum fluorescence for the relevant value.
% Control=((Value-Min)/(Max-Min))×100

Test [2] has as its target IL-8 receptor. In words: conventional [^125 I]IL-8 ligand displacement assay. The class given is binding.

The source of these data is patent US5876946A, “High-throughput assay” (Pharmacopeia, Inc., priority 1997, dated 1999).

In general, IC50 refers to the midpoint of a concentration-inhibition curve. Low readings indicate greater potency, high ones weaker potency. For orientation: Hill coefficient means the slope factor of the fitted curve. On to `CC(=O)NC1(c2ccccc2)CCN(CCC(CN(C)C(=O)c2ccccc2)c2ccc(Cl)c(Cl)c2)CC1` (stereo not shown) [SR48.968], for which the half-maximal inhibitory concentration (IC50) in test [1] is 0.575 nM. Moreover, in test [1] (displacement of Cy5-NKA), the “estimated Ki” value is roughly 0.29 nM. The same molecule registered a Hill coefficient in test [1] (displacement of Cy5-NKA by SR48.968) of 0.996.

Usually Ki stands for the equilibrium dissociation constant of an inhibitor or competing ligand from its target. A high value points to a looser hold on the target. “hIL(S72C)-Cy5: Human interleukin-8, Ser72→Cys mutant (hIL-8(S72C)), labelled with monofunctional Cy5-iodoacetamide” registered an inhibition constant (Ki) in test [2] of 2 nM.
